{
  "source": "patent US20240002470A1",
  "about": "“Method for separation and/or detection and/or in vitro quantification of infectious compounds in biological material” (priority 2020, published 2024)",
  "key": {"E. coli B6054 [1]": {"tested_on": "E. coli B6054", "assay": "Capture of E. coli B6054 on magnetic microbeads, culture on TS agar and counting", "assay_type": "binding, Escherichia coli", "details": "E. coli B6054 colonies from captured beads"}, "[2]": {"tested_on": "ISAV virus (Infectious salmon anemia virus)", "assay": "Capture of ISAV virus on magnetic microbeads coated with pepβ2GPI, RT-PCR quantification", "assay_type": "binding", "details": "for % compared to β2GPI: ISAV copies captured relative to β2GPI beads; for ISAV copies: virus captured on coated beads from culture supernatant", "excerpt": "The virus used is the ISAV virus (Infectious salmon anemia virus), responsible for anemia in salmon, originating from a culture supernatant.\nThe microbeads, intended to fix the virus, which are used are magnetic microbeads sold by the company MERCK under the name “Estapor® super-paramagnetic microspheres” which have a diameter between […].\n(§1) The pepβ2GPI were grafted onto the microbeads according to the supplier's recommendations. In summary, the microbeads are suspended in phosphate buffer at a pH of 6.0. The beads are then activated, for 15 minutes, in the presence of 1-ethyl-3-(3-Dimethylaminopropyl) carbodiimide and N-hydroxysuccinimide. After washing with HCl, 2 mM, the beads are suspended in a phosphate buffer at a pH of 7.5, containing the pepβ2GPI. The concentration of pepβ2GPI in this coupling buffer is 20 mg/L; the microbeads are incubated in the buffer with gentle and constant shaking at a temperature of 25° C. for 3 hours. The microbeads are then centrifuged at 1,500 rpm and the supernatant is removed; the centrifugation pellet is suspended in the same buffer as that used for the coupling of pepβ2GPI, which forms the suspension of microbeads coated with pepβ2GPI which we want to test.\n(§2) One hundred microliters of viral culture supernatant to be studied are placed in an Eppendorf tube with 900 microliters of Tris buffer at a pH of 7.5 and 10 microliters of microbeads. The tubes are shaken horizontally to mix the microbeads well, and each tube is incubated at 37° C. or at room temperature (RT=22° C.) for 30 minutes. In each tube, the microbeads are then separated from the liquid phase by means of a magnet, placed externally against the wall of the tube, and the viral RNA is extracted. The beads are brought into contact with a viral lysis buffer, included in an RNA extraction kit: QIAamp RNA viral kit, sold by QIAGEN and the viral RNA is isolated according to the seller's recommendations.\nThe RNA is then transcribed into complementary DNA, in the presence of reverse transcriptase, according to the following protocol:\nFinally, the complementary DNA (cDNA) is amplified by chain reaction using a polymerase and quantified according to the following protocol: […]"}, "E. coli ATCC 11105": {"tested_on": "E. coli ATCC 11105", "assay": "Capture on magnetic microbeads coated with pepβ2GPI: C3 E. coli ATCC 11105", "assay_type": "binding", "protocol": "(§3) To test the interaction of microbeads coated with β2GPI and the peptides derived from them, with bacteria present in the blood, 1 ml of blood culture is taken from each sample and placed in a 15 ml tube. 20 μl of microbeads are added and each tube is incubated at 37° C. with horizontal shaking. The tubes are then placed in a magnetic field which retains the microbeads on the wall and the supernatant is removed. The microbeads are then washed twice with sterile PBS, of the same composition as previously indicated; the microbeads are then resuspended in 150 μl of BTS culture medium. Two methods for detecting bacteria captured by microbeads were used: culture on TS agar and PCR For the detection of the bacterial capture by culture, 50 μl of the suspension of microbeads thus obtained are taken and they are spread out in a Petri dish containing TS agar. Petri dishes are incubated in an oven at 37° C. for 24 hours. The bacteria that have grown on the agar were then counted.\n(§4) The tested bacteria are: C3 E. coli ATCC 11105, C5 S. aureus ATCC 6538, H61 E. coli B6054, C1: E. coli ATCC 8739, H46: C. albicans 1 and H: 60 SCN\n(§5) The same protocol and primers as those described in example 9 were carried out."}, "S. aureus, SA 378804": {"tested_on": "S. aureus, SA 378804", "assay": "Capture of S. aureus SA 378804 on magnetic microbeads, culture and counting", "assay_type": "binding, Staphylococcus aureus", "details": "S. aureus SA 378804 colonies from captured beads", "protocol": "(§6) One ml of the culture of bacteria to be studied is placed in a hemolysis tube. 100 μl of buffer are added, the trade name of which is TTGB, then 20 μl of microbeads. The tube is stirred horizontally, to mix the microbeads well, and incubated at 37° C. or at room temperature (TA=22° C.) for half an hour. At the end of the incubation, the microbeads are separated from the liquid phase by means of a magnet, placed externally against the wall of the tube. The microbeads are then washed twice with LB medium and then resuspended in 1 ml of BTS culture medium (Tripticase-Soy broth) having the following formulation: […]\n(§7) This culture medium is brought to a boil and then autoclaved, to make it sterile, before use. 20 μl of the microbead suspension are taken and spread in a Petri dish containing TS agar (Trypticase-Soya agar) having the following formulation: […]\n(§8) The Petri dishes are incubated at +37° C. for 24 hours. The bacteria that have grown on the agar are then counted.\nThe used bacterium is a strain of Staphylococcus aureus (S. aureus), SA 378804, isolated from the wound of the foot of a diabetic person, Sotto et al., Diabetes Care (2008) 31 (12), p. 2318-24. The same experiment as that described in the previous example was carried out."}, "S. aureus ATCC 6538": {"tested_on": "S. aureus ATCC 6538", "assay": "Capture on magnetic microbeads coated with pepβ2GPI: C5 S. aureus ATCC 6538", "assay_type": "binding", "protocol": "as §3, §4, §5"}, "[3]": {"tested_on": "IPN virus (Infectious pancreatic necrosis virus)", "assay": "Capture of IPN virus on magnetic microbeads coated with pepβ2GPI, RT-PCR quantification", "assay_type": "binding", "details": "for % compared to β2GPI: IPN copies captured relative to β2GPI beads; for IPN Copies: virus captured on coated beads from culture supernatant", "protocol": "as §1, §2\nThe virus used is the IPN virus (Infectious pancreatic necrosis virus), responsible for necrosis of the pancreas in salmon, originating from a culture supernatant. The same protocol as described in example 1 was carried out."}, "E. coli B6054 [4]": {"tested_on": "E. coli B6054", "assay": "Capture on magnetic microbeads coated with pepβ2GPI: H61 E. coli B6054", "assay_type": "binding", "protocol": "as §3, §4, §5"}, "[5]": {"tested_on": "HSV virus (Herpes Simplex virus)", "assay": "Capture of HSV virus on magnetic microbeads coated with pepβ2GPI", "assay_type": "binding", "protocol": "as §1, §2\n(§9) The viruses tested are the HSV virus (Herpes Simplex virus) and the BVDV virus (Bovine viral Diarrhea Virus).\n(§10) The same protocol as that described in example 1 was carried out."}, "[6]": {"tested_on": "BVDV virus (Bovine viral Diarrhea Virus)", "assay": "Capture of BVDV virus on magnetic microbeads coated with pepβ2GPI", "assay_type": "binding", "protocol": "as §1, §2, §9, §10"}, "E. coli ATCC 8739": {"tested_on": "E. coli ATCC 8739", "assay": "Capture of E. coli ATCC 8739 on magnetic microbeads, culture and counting", "assay_type": "binding, Escherichia coli", "details": "E. coli ATCC 8739 colonies from captured beads", "protocol": "as §6, §7, §8\nThe used bacteria were obtained from a collection strain of Escherichia coli (E. coli), ATCC 8739. The same experiment as that described in the previous example was carried out."}, "[7]": {"tested_on": "HCV virus (hepatitis C virus)", "assay": "Capture of HCV virus from patient plasma on magnetic microbeads coated with pepβ2GPI, RT-PCR quantification", "assay_type": "binding", "details": "for % compared to β2GPI: HCV copies captured relative to β2GPI beads; for HCV/run copies: per run, virus captured on coated beads from plasma of patients", "protocol": "as §1, §2\nThe virus used is the HCV virus (hepatitis C virus), present in the plasma of patients. The same protocol as described in example 1 was carried out."}, "S. pyogenes": {"tested_on": "S. pyogenes", "details": "cited from earlier work"}, "E. coli": {"tested_on": "E. coli", "details": "cited from earlier work"}, "S. aureus": {"tested_on": "S. aureus", "details": "cited from earlier work"}},
  "data": [
    {"substance": "CKNKEKKC [Peptide P2]", "values": [
      {"measurement": "% compared to β2GPI", "setting": "E. coli B6054 [1]", "value": 31, "unit": "%"},
      {"measurement": "% compared to β2GPI", "setting": "[2]", "value": "(112%)"},
      {"measurement": "ISAV copies", "setting": "[2]", "value": "62 700 copies"},
      {"measurement": "Capture of C3 E. coli ATCC 11105", "setting": "E. coli ATCC 11105", "value": 30, "unit": "%"},
      {"measurement": "% compared to β2GPI", "setting": "S. aureus, SA 378804", "value": 104, "unit": "%"},
      {"measurement": "Capture of C5 S. aureus ATCC 6538", "setting": "S. aureus ATCC 6538", "value": 80, "unit": "%"},
      {"measurement": "% compared to β2GPI", "setting": "[3]", "value": "(50%)"},
      {"measurement": "IPN Copies", "setting": "[3]", "value": 6, "unit": "copies"},
      {"measurement": "Capture of H61 E. coli B6054", "setting": "E. coli B6054 [4]", "value": 104, "unit": "%"},
      {"measurement": "Capture of HSV virus", "setting": "[5]", "value": 97, "unit": "%"},
      {"measurement": "Capture of BVDV virus", "setting": "[6]", "value": 181, "unit": "%"},
      {"measurement": "% compared to β2GPI", "setting": "E. coli ATCC 8739", "value": 15, "unit": "%"},
      {"measurement": "% compared to β2GPI", "setting": "[7]", "value": "(72%)"},
      {"measurement": "HCV/run copies", "setting": "[7]", "value": 81, "unit": "copies"}
    ]},
    {"substance": "GDKVSFFCKNKEKKCS [GDK15]", "values": [
      {"measurement": "bactericidal effect", "setting": "S. pyogenes", "value": "have a bactericidal effect"},
      {"measurement": "bactericidal effect", "setting": "E. coli", "value": "have a bactericidal effect"},
      {"measurement": "bactericidal effect", "setting": "S. aureus", "value": "This effect is less"}
    ]},
    {"substance": "CKNKEKKC [Peptide P3]", "values": [
      {"measurement": "% compared to β2GPI", "setting": "[2]", "value": "(117%)"},
      {"measurement": "ISAV copies", "setting": "[2]", "value": "65 550 copies"},
      {"measurement": "Capture of C3 E. coli ATCC 11105", "setting": "E. coli ATCC 11105", "value": 42, "unit": "%"},
      {"measurement": "Capture of C5 S. aureus ATCC 6538", "setting": "S. aureus ATCC 6538", "value": 65, "unit": "%"},
      {"measurement": "Capture of H61 E. coli B6054", "setting": "E. coli B6054 [4]", "value": 88, "unit": "%"},
      {"measurement": "Capture of BVDV virus", "setting": "[6]", "value": 15, "unit": "%"}
    ]},
    {"substance": "SSLAFWK [Peptide P1]", "values": [
      {"measurement": "% compared to β2GPI", "setting": "E. coli B6054 [1]", "value": 92, "unit": "%"},
      {"measurement": "% compared to β2GPI", "setting": "[2]", "value": "(130%)"},
      {"measurement": "ISAV copies", "setting": "[2]", "value": "72 300 copies"},
      {"measurement": "Capture of C3 E. coli ATCC 11105", "setting": "E. coli ATCC 11105", "value": 30, "unit": "%"},
      {"measurement": "% compared to β2GPI", "setting": "S. aureus, SA 378804", "value": 115, "unit": "%"},
      {"measurement": "Capture of C5 S. aureus ATCC 6538", "setting": "S. aureus ATCC 6538", "value": 56, "unit": "%"},
      {"measurement": "% compared to β2GPI", "setting": "[3]", "value": "(117%)"},
      {"measurement": "IPN Copies", "setting": "[3]", "value": 14, "unit": "copies"},
      {"measurement": "Capture of H61 E. coli B6054", "setting": "E. coli B6054 [4]", "value": 71, "unit": "%"},
      {"measurement": "Capture of BVDV virus", "setting": "[6]", "value": 7, "unit": "%"},
      {"measurement": "% compared to β2GPI", "setting": "E. coli ATCC 8739", "value": 68, "unit": "%"},
      {"measurement": "% compared to β2GPI", "setting": "[7]", "value": "(163%)"},
      {"measurement": "HCV/run copies", "setting": "[7]", "value": 184, "unit": "copies"}
    ]}
  ]
}
